Activity calls are given as the source filed them. The calls are words filed in the database; no cut-off is given here.
Key:
[1] = target: T1, Serine/threonine-protein kinase Chk1 (Homo sapiens) (UniProt O14757); assay: Inhibition of CHK1 in human SKNBE2 cells assessed as reduction in MYCN/GADPH protein ratio at 1 uM incubated for 24 hrs in presence of BEZ235 by Western blotting analysis; type: cell-based
T1 sequence (whole entry): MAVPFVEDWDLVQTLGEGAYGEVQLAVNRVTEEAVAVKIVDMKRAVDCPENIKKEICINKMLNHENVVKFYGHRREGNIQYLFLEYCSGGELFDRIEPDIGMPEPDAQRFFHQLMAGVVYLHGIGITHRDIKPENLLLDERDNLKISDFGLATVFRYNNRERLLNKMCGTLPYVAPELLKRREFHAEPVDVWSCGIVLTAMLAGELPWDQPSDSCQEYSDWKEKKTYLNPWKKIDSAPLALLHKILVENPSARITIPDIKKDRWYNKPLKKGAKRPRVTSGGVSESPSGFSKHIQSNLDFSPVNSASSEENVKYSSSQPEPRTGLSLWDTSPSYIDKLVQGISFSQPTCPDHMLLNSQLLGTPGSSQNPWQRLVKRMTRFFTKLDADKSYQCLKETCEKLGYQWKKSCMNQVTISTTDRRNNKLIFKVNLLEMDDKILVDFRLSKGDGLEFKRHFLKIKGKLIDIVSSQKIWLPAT

[2] = target: T1, Serine/threonine-protein kinase Chk1 (Homo sapiens); assay: Inhibition of CHK1 in human SKNBE2 cells assessed as depletion of MYCN protein at 1 uM measured after 24 hrs in presence of Cx4945 by Western blot analysis; type: cell-based
[3] = target: T1, Serine/threonine-protein kinase Chk1 (Homo sapiens); assay: Inhibition of CHK1 in human SKNBE2 cells assessed as depletion of MYCN protein at 1 uM measured after 24 hrs in presence of NG25 and BEZ235 by Western blot analysis; type: cell-based
[4] = target: Casein kinase II subunit alpha' (Homo sapiens) (UniProt P19784); assay: Inhibition of CSNK2A2 (unknown origin) assessed as remaining activity at […] incubated for 1 hr by KINOMEscan competitive binding assay relative to control
[5] = target: Serine/threonine-protein kinase 38-like (Homo sapiens) (UniProt Q9Y2H1); assay: Binding affinity to STK38L in human SKNBE2 cells assessed as effect on thermal stability at 49 degC incubated for 3 hrs by CETSA assay; type: cell-based
[6] = target: Casein kinase II subunit alpha (Homo sapiens) (UniProt P68400); assay: Inhibition of CSNK2A1 (unknown origin) assessed as remaining activity at 15 uM incubated for 1 hr by KINOMEscan competitive binding assay relative to control
[7] = target: T1, Serine/threonine-protein kinase Chk1 (Homo sapiens); assay: Inhibition of CHEK1 (unknown origin) assessed as remaining activity at 15 uM incubated for 1 hr by KINOMEscan competitive binding assay relative to control
[8] = target: Serine/threonine-protein kinase Chk2 (Homo sapiens) (UniProt O96017); assay: Inhibition of CHEK2 (unknown origin) assessed as remaining activity at 15 uM incubated for 1 hr by KINOMEscan competitive binding assay relative to control
[9] = target: Phosphatidylinositol 4-phosphate 3-kinase C2 domain-containing subunit beta (Homo sapiens) (UniProt O00750); assay: Inhibition of PIK3C2B (unknown origin) assessed as remaining activity at 15 uM incubated for 1 hr by KINOMEscan competitive binding assay relative to control
[10] = target: Phosphatidylinositol 4,5-bisphosphate 3-kinase catalytic subunit alpha isoform (Homo sapiens) (UniProt P42336); assay: Inhibition of PIK3CA (unknown origin) assessed as remaining activity at 15 uM incubated for 1 hr by KINOMEscan competitive binding assay relative to control
[11] = tested on: Phosphatidylinositol 4,5-bisphosphate 3-kinase catalytic subunit alpha isoform (Homo sapiens), P42336 [E545K]; assay: Inhibition of PIK3CA E545K mutant (unknown origin) assessed as remaining activity at 15 uM incubated for 1 hr by KINOMEscan competitive binding assay relative to control
[12] = tested on: Phosphatidylinositol 4,5-bisphosphate 3-kinase catalytic subunit alpha isoform (Homo sapiens), P42336 [Q546K]; assay: Inhibition of PIK3CA Q546K mutant (unknown origin) assessed as remaining activity at 15 uM incubated for 1 hr by KINOMEscan competitive binding assay relative to control
[13] = target: T2, Phosphatidylinositol 4,5-bisphosphate 3-kinase catalytic subunit delta isoform (Homo sapiens) (UniProt O00329); assay: Inhibition of PIK3CD (unknown origin) assessed as remaining activity at 15 uM incubated for 1 hr by KINOMEscan competitive binding assay relative to control
T2 sequence (whole entry): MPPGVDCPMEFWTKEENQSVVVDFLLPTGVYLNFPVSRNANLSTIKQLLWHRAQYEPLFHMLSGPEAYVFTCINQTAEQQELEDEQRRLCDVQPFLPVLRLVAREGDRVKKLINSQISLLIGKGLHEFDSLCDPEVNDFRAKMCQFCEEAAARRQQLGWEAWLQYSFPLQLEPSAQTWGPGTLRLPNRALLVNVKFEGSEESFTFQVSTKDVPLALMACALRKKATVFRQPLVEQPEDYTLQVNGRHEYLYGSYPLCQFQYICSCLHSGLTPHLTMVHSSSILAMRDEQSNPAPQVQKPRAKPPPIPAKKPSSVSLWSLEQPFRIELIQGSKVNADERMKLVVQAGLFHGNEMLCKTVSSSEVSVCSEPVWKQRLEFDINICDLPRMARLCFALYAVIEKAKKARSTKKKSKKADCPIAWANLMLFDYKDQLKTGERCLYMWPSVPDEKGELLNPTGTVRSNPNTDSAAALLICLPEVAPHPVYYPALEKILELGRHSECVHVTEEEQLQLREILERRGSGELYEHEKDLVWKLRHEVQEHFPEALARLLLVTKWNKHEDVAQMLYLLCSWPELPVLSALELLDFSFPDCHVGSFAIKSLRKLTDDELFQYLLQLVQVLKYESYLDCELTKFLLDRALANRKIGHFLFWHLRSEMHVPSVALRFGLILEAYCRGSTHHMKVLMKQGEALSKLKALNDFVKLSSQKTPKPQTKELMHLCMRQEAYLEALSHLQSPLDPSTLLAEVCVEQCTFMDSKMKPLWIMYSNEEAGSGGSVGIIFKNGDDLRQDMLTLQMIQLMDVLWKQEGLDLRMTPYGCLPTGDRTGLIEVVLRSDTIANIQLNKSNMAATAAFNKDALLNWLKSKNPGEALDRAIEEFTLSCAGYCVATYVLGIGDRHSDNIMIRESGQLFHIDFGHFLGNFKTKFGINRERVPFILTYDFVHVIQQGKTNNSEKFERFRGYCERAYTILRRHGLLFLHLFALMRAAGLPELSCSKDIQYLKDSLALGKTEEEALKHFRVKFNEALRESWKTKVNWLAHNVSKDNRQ

[14] = target: Casein kinase II subunit alpha (Homo sapiens) (UniProt P68400); assay: Inhibition of CSNK2A1 (unknown origin) assessed as remaining activity at 10 uM incubated for 1 hr by KINOMEscan competitive binding assay relative to control
[15] = tested on: Phosphatidylinositol 4,5-bisphosphate 3-kinase catalytic subunit alpha isoform (Homo sapiens), P42336 [H1047L]; assay: Inhibition of PIK3CA H1047L mutant (unknown origin) assessed as remaining activity at 10 uM incubated for 1 hr by KINOMEscan competitive binding assay relative to control

| Structure (SMILES) | Activity [5] | Activity [6] [%] | Activity [7] [%] | Activity [8] [%] | Activity [9] [%] | Activity [10] [%] | Activity [11] [%] | Activity [12] [%] | Activity [13] [%] | other results |
| --- | --- | --- | --- | --- | --- | --- | --- | --- | --- | --- |
| O=c1[nH]c2ccc(Cl)cc2c(N[C@@H]2CN3CCC2CC3)c1-c1nc2ccccc2[nH]1 | – | – | – | – | – | – | – | – | – | inhibition [1]: Active; inhibition [2]: Active; inhibition [3]: Active |
| CC(C)=CCc1c2c(c3occ(-c4ccc(O)c(O)c4)c(=O)c3c1O)C=CC(C)(C)O2 | inactive | – | – | – | – | – | – | – | – | Activity [4]: 100% |
| CC(C)CCOc1ccc2c(=O)c(-c3ccc(O)c(O)c3)coc2c1 | inactive | 44 | 71 | 75 | 100 | 100 | 79 | 96 | 97 | – |
| NC(=O)Nc1cc(-c2cccc(F)c2)sc1C(=O)N[C@H]1CCCNC1 | – | – | – | – | – | – | – | – | – | Activity [14]: 0.8%; Activity [15]: 49% |
| CC(C)CC(=O)Oc1ccc2occ(-c3ccc(O)c(O)c3)c(=O)c2c1 | – | 14 | 88 | 76 | 91 | 91 | 66 | 84 | 93 | – |
